{"source": "patent US20070208003A1", "about": "“COMPOUNDS AND METHODS FOR TREATING DYSLIPIDEMIA” (priority 2004, published 2007)", "system": "transgenic mice that express both human CETP and human apolipoprotein A-1", "assay": "Assay of plasma lipids in vivo: elevation of HDL cholesterol", "conditions": "single oral dose 30 mg/kg; at 8 hr; serum HDL cholesterol relative to control; transgenic mice expressing human CETP and human apolipoprotein A-1", "method": "Assay of Plasma Lipids In Vivo.\nActivity of compounds of this invention in vivo can be determined by the level of elevation of HDL cholesterol relative to control by a given amount of compound in a CETP-containing animal species. A strain of transgenic mice that express both human CETP and human apolipoprotein A-1 (Taconic, Germantown, N.Y.) is used to test compounds of this invention. Test compounds are administered once orally in selected aqueous or oil based vehicles. At various times after dosing, ranging from 4 h to 24 h, blood is obtained. Blood is allowed to clot and serum is obtained by centrifugation. HDL cholesterol levels in the serum is determined by HDL-C plus reagents (Roche/Hitachi, Indianapolis, Ind.) with a clinical chemistry analyzer (Roche/Hitachi, Indianapolis, Ind.). Additional serum lipids can be analyzed by enzymatic methods. Lipids in the VLDL, LDL and HDL fractions are analyzed by enzymatic methods after precipitation or size exclusion chromatography."}
{"molecule": "Cc1nc2c(cc1C(F)(F)F)N(C(=O)OC(C)C)CCCC2N(Cc1cc(C(F)(F)F)cc(C(F)(F)F)c1)c1nnn(C)n1", "note": "(racemic) [Example 14]", "values": [{"measurement": "% HDL cholesterol increase", "result": 91, "unit": "%"}]}
